Source: patent US9994576B2, “Substituted pyrazolo[3,4-d]pyrimidines as kinase inhibitors” (PRINCIPIA BIOPHARMA INC., priority 2012, dated 2018)

Biological target: protein target (Homo sapiens (Human), UniProt Q06187)
Assay: Reversibility of binding (compound in solution before/after denaturation or digestion of target, HPLC-MS/MS)
Settings: native (folded) target in excess over compound
Procedure: The following approach was developed to differentiate compounds that form irreversible covalent bond with their targets, such as non-cyano containing acrylamide compounds, from compound that form reversible covalent bond i.e., compounds and/or pharmaceutically acceptable salts of the present disclosure. […] The reactions were then treated with perturbations including both denaturation with 5 M guanidine hydrochloride and digestion with trypsin, disrupting proper folding of the target. […] The concentration of compound in solution was assessed both preceding and following perturbation using high performance liquid chromatography (HPLC) coupled to tandem mass spectrometry.

Sequence of protein target (Q06187 whole entry): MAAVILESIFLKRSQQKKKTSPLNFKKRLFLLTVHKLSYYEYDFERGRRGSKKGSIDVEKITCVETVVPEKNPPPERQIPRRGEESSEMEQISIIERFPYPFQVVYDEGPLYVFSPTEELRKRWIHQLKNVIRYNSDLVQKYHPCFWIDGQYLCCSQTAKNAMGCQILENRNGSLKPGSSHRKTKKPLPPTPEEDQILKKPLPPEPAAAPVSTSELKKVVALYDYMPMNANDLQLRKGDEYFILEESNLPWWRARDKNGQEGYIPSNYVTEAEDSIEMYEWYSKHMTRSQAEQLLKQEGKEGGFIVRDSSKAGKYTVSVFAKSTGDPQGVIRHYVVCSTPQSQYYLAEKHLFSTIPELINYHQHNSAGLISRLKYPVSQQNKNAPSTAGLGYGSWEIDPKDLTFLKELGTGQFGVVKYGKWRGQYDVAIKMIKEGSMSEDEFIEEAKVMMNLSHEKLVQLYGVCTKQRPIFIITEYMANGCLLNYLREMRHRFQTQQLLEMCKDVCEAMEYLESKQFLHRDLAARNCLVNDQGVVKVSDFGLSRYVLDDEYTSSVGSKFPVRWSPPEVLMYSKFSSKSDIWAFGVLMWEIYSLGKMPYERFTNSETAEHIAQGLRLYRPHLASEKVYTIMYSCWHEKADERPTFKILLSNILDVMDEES

Compound in solution in the native state?: no
Compound: CN(C1COC1)C(C)(C)C=C(C#N)C(=O)N1CCC[C@H]1Cn1nc(-c2ccc(Oc3ccccc3)cc2F)c2c(N)ncnc21 [Example 10, 2-[(2S)-2-[[4-amino-3-(2-fluoro-4-phenoxy-phenyl)pyrazolo[3,4-d]pyrimidin-1-yl]methyl]pyrrolidine-1-carbonyl]-4-methyl-4-[methyl(oxetan-3-yl)amino]pent-2-enenitrile]
